Assay results as given in patent publication US20170049726A1, “METFORMIN IN TREATMENT OF NEUROBLASTOMA” (UNIVERSITY OF SOUTH CAROLINA, priority 2015, published 2017).

How the values were obtained:
SK-N-BE(2) tumors = test: Immunohistochemistry of cleaved caspase-3 and sox2 in SK-N-BE(2) tumor sections; assay type: in vivo, athymic nude mice (nu/nu); conditions: tumors from mice treated with metformin 100 mg/kg daily oral
Method: For tumor tissue, paraformaldehyde-fixed paraffin-embedded tumor sections (5 μm thick) were deparaffinized in xylene, rehydrated with sequential immersion in graded ethanol (100%, 95%, 85%, 70% and 50%). Antigen unmasking was carried out by boiling slides in 10 mM sodium citrate buffer, pH 6.0, at 95° C. for 30 min. After cooling down at room temperature, sections were incubated with 0.1M glycine+0.3% Triton X-100/PBS for 30 min, and were blocked with 10% IgG-free BSA in 1×PBS for overnight at 4° C. Sections were incubated with primary antibodies diluted in 5% IgG-free BSA+0.3% Triton X-100/PBS (1:100 dilution) for overnight at 4° C. Primary antibodies were detected as described in previous paragraph. Primary antibodies used were: sox2, oct4 and nanog, and active form of caspase-3.
To determine if metformin inhibition of tumor growth resulted from apoptotic cell death in tumor stem cells, immunohistochemistry was performed by staining paraffin-embedded tumor sections with antibodies specific for active cleaved form of caspase-3 (an indicator of apoptosis) and stem cell specific marker sox2.

SK-N-BE(2) cells [1] = test: Immunofluorescence staining of cleaved caspase-3 and sox2 in SK-N-BE(2) monolayer cells; assay type: cell-based, human; conditions: metformin 10 mM, 2 days
Method: Neuroblastoma cells grown in Lab-TekII chamber slides (Fisher Scientific, Pittsburgh, Pa.) were treated with metformin in complete culture medium. After treatments, cells were washed with 1×PBS, fixed with 4% paraformaldehyde/PBS for 20 min, and incubated in 1×PBS buffer containing 0.1M glycine and 0.3% Triton X-100 for 30 min at room temperature. Cells were washed with 1×PBS for 4 times (10 min each) and blocked with 5% immunoglobulin (IgG)-free bovine serum albumin (BSA; Jackson ImmunoResearch Laboratories, West Grove, Pa.) in 1×PBS for overnight at 4° C. Cells were incubated with antibodies raised against sox2, oct4 and nanog, and active form of caspase-3 diluted in 2.5% BSA+0.3% Triton X-100 in PBS for overnight at 4° C. Primary antibodies were detected with secondary antibodies conjugated with AlexaFluor-488 or AlexaFluor-568 for 2 h at room temperature. After washing with 1×PBS, cells were mounted with antifade Vectashield™ mounting media (Vector Laboratories, Burlingame, Calif.), and signals were visualized under Nikon™-E600 fluorescence microscope. Nuclei were stained with 4′, 6-diamidino-2-phenylindole (DAPI; Sigma). […]

SK-N-BE(2) cells [2] = test: Primary spheroid formation assay; assay type: cell-based, human; conditions: 20 days
Method: (§1) For spheroid formation, adherent cells were trypsin digested (0.25% Trypsin-EDTA) for 3-4 min at 37° C., washed and suspended in the serum-free stem cell specific medium [DMEM/F-12 medium (Lonza, Switzerland) supplemented with 1% N-2 supplement, 2% B-27 without vitamin A, 20 ng/ml human recombinant epidermal growth factor (hrEGF), 20 ng/ml human recombinant basic fibroblast growth factor (bFGF) and 1% antibiotic-antimycotic solution; all from Gibco]. The dispersed single cells were plated at density of 1,000 cells/well in Costar ultra-low attachment six-well plates (Corning Inc., Corning, N.Y.), and treated with indicated concentrations of metformin. The stock solution of metformin (MP Biomedicals, Solon, Ohio) was freshly prepared in sterile triple distilled water before each experiment. Cells treated with equal volume of vehicle were used as control. Cell culture medium was changed on every fourth day. […]
(§2) To test the effect of metformin in neuroblastoma spheroid formation, SK-N-BE(2) cells were grown in stem cell specific medium on ultra-low attachment plates and the growth of spheroid formation was monitored For spheroid formation assays, SK-N-BE(2) cells were seeded at density of 1000 cells per well in six-well plate in stem cell-specific medium with or without metformin (0.1, 0.5, 1, 10 and 20 mM). After 20 days, pictures of formed spheroids were taken and the number of spheroids equal to or larger than 100 μm in size (termed primary spheroids) was counted (FIG. 7 at A and B). […] Secondary spheroid formation (as an indicator of self-renewal potential of neuroblastoma spheres) was analyzed. After 20 days, the number of formed secondary spheroids (equal or larger than 100 μm in size) was counted and plotted (FIG. 7 at C).

[3] = test system: tumors generated from SK-N-BE(2) spheroids; test: In vivo xenograft of tumors generated from SK-N-BE(2) spheroids; parameters: species or system athymic nude mice (nu/nu); conditions: 100 mg/kg daily by oral gavage, 21 days of treatment, nude mice
Method: SK-N-BE(2) neuroblastoma spheroids (15-day-old) were dissociated by trypsinization, washed with stem cell specific medium and counted. 1×10^5 cells were mixed (1:1 volume) with EGF-reduced matrigel (BD Bioscience, San Jose, Calif.) to make total volume of 0.1 ml. The cell mixture (0.1 ml) was injected subcutaneously (s.c.) into flanks of 6-week-old female nude athymic mice (nu/nu mice; Charles River Laboratories, Wilmington, Mass.). The animals were housed at 25° C. with a 12-h light/12-h dark cycle in laminar flow cabinets under specific pathogen-free conditions and given sterile water and food ad libitum. Engrafted mice were inspected for tumor appearance, and tumor growth was measured on every fourth day using a caliper. Tumor volume was calculated using the ellipsoid formula (length×width×height×0.5). […]
To assess whether metformin has inhibitory effects on the tumorigenicity of neuroblastoma stem cells, tumors were generated from neuroblastoma stem cells by inoculating tumor cells from SK-N-BE(2) spheroids (15-day-old) subcutaneously in to the flank region of athymic nude mice. […] The size of tumors was measured on every fourth day, and after 21 days of metformin treatment tumors were harvested and sizes were measured.

oct4 = test: Western blot of stem cell marker protein oct4 in metformin-treated SK-N-BE(2) cells; assay type: cell-based, human; conditions: metformin 1, 10 and 20 mM, 2 days, vs untreated control
Method: (§3) SH-SY5Y, IMR-32, SK-N-BE(2) and SKNF-1 human neuroblastoma cells were purchased from The American Type Culture Collection (ATCC; Manassas, Va.), and NGP cells were kind gift from Garrett M. Brodeur (The Children's Hospital of Philadelphia, Philadelphia, Pa.). Cells were maintained as monolayer in Dulbecco's Modified Eagle's Medium (DMEM) containing 10% fetal bovine serum (FBS; Atlanta Biologicals, Lawrenceville, Ga.) and 1% antibiotic-antimycotic solution (100 unit/ml penicillin, […]; Gibco, Grand Island, N.Y.) at 37° C. in a humidified incubator with 5% CO2. For all the experiments, cell culture passages from 4-12 were used.
(§4) Cells, either from monolayer or from spheroids, were dissociated by trypsinization, washed with 1× phosphate buffered saline (PBS), pH 7.5, and lysed with 1× cell lysis buffer (Cell Signaling Technology, Danvers, Mass.) containing phenylmethylsulfonyl fluoride (PMSF) and protease inhibitors (aprotinin and leupeptin) for 30 min on ice. […] Protein concentration was determined by bicinchoninic acid method using BCA protein assay kit (Pierce/Thermo-scientific, Waltham, Mass.). Equal amount of proteins were diluted with 5×Laemmli samples loading buffer, boiled for five minutes, separated on sodium dodecyl sulfate (SDS)-polyacrylamide gel, and analyzed by Western blotting. […]

nanog = test: Western blot of stem cell marker protein nanog in metformin-treated SK-N-BE(2) cells; assay type: cell-based, human; conditions: metformin 1, 10 and 20 mM, 2 days, vs untreated control
Method: as §3, §4

sox2 = test: Western blot of stem cell marker protein sox2 in metformin-treated SK-N-BE(2) cells; assay type: cell-based, human; conditions: metformin 1, 10 and 20 mM, 2 days, vs untreated control
Method: as §3, §4

SK-N-BE(2) spheroids = test: Immunofluorescence of cleaved caspase-3 in SK-N-BE(2) spheroids; assay type: cell-based, human; conditions: metformin-treated SK-N-BE(2) spheroids
Method: Neuroblastoma cells grown in Lab-TekII chamber slides (Fisher Scientific, Pittsburgh, Pa.) were treated with metformin in complete culture medium. After treatments, cells were washed with 1×PBS, fixed with 4% paraformaldehyde/PBS for 20 min, and incubated in 1×PBS buffer containing 0.1M glycine and 0.3% Triton X-100 for 30 min at room temperature. Cells were washed with 1×PBS for 4 times (10 min each) and blocked with 5% immunoglobulin (IgG)-free bovine serum albumin (BSA; Jackson ImmunoResearch Laboratories, West Grove, Pa.) in 1×PBS for overnight at 4° C. Cells were incubated with antibodies raised against sox2, oct4 and nanog, and active form of caspase-3 diluted in 2.5% BSA+0.3% Triton X-100 in PBS for overnight at 4° C. Primary antibodies were detected with secondary antibodies conjugated with AlexaFluor-488 or AlexaFluor-568 for 2 h at room temperature. After washing with 1×PBS, cells were mounted with antifade Vectashield™ mounting media (Vector Laboratories, Burlingame, Calif.), and signals were visualized under Nikon™-E600 fluorescence microscope. Nuclei were stained with 4′, 6-diamidino-2-phenylindole (DAPI; Sigma).

SK-N-BE(2) cells [4] = test: Secondary spheroid formation assay (self-renewal); assay type: cell-based, human; conditions: metformin at lower concentration (0.1 mM), 20 days
Method: as §1, with “metformin.” for “metformin. The stock solution of metformin (MP Biomedicals, Solon, Ohio) was freshly prepared in sterile triple distilled water before each experiment. Cells treated with equal volume of vehicle were used as control. Cell culture medium was changed on every fourth day.”
as §2, with “After 20 days, the number of formed secondary spheroids (equal or larger than 100 μm in size) was counted and plotted (FIG. 7 at C).” left out

SMILES: CN(C)C(=N)NC(=N)N [metformin, N′,N′-dimethylbiguanide]
- cytoplasmic cleaved caspase-3 signals in tumor tissues (SK-N-BE(2) tumors): present
- cleaved caspase-3 signals (apoptotic cell death) (SK-N-BE(2) cells [1]): present in both sox2-expressing and sox2-nonexpressing cells
- number of primary spheroids vs control (SK-N-BE(2) cells [2]; metformin 0.1 mM): similar
- primary spheroid formation (SK-N-BE(2) cells [2]; metformin 0.5 mM and higher concentrations): reduced primary spheroid formation significantly
- formation of primary spheroids (equal to or larger than 100 μm) (SK-N-BE(2) cells [2]; metformin 0.1, 0.5, 1, 10 and 20 mM, overall vs control): significantly decreased the formation of primary neuroblastoma spheroids in a dose dependent manner
- size of the subcutaneous tumor vs control [3]: less
- oct4 protein expression (oct4): No change
- level of nanog protein (nanog): dose dependently decreased
- level of sox2 protein (sox2): dose dependently decreased
- cleaved caspase-3 signal in sox2-expressing cells of spheroids (SK-N-BE(2) spheroids): induced apoptotic death in spheroids
- secondary spheroid formation (SK-N-BE(2) cells [4]): significantly inhibited secondary spheroid formation
